Experimental data published in patent publication US4282248A, “Pinene derivatives and pharmaceutical compositions containing the same” (priority 1978, dated 1981).

Legend:
Assay type in all cases: in vivo
[1] = foot pressure test (rat foot pressure); details: for ED50: Rattus norvegicus
Protocol: (§1) The analgetic activity was tested by the acetic acid induced writhing test (Sofia et al., J. Pharmacol.Expt.Therap. 18, 646, 1973), by the tail flick test (Grotto et al., Arch Intern.Pharmacodyn. 170, 257, 1967) and by the foot pressure test (Randall and Selito, Arch, Int. Pharmacodyn. 409, 1957). The central nervous system action was tested by the mouse ring test (Pertwee, Brit. J. Pharmacol. 46, 753, 1972).

[2] = acetic acid induced writhing test (mouse writhing); details: for ED50: Mus musculus
Protocol: as §1

[3] = tail flick test (mouse tail flick); details: for ED50: Mus musculus
Protocol: as §1

SMILES	ED50 [1] [mg/kg]	ED50 [2] [mg/kg]	ED50 [3] [mg/kg]	Rat foot pressure ED50 [1]	Mouse writhing ED50 [2] [mg/kg]	Mouse tail flick ED50 [3]
CCCCCCC(C)(C)c1cc(OC(C)=O)c(C2C=C(COC(C)=O)C3CC2C3(C)C)c(OC(C)=O)c1 (single isomer, unassigned) [VIIIa(+), 4-Trans-[2-(5-(1,1-dimethylheptyl)-resorcyl)]-10-hydroxy-pin-2-ene triacetate]	50	18	50			
CCCCCCC(C)(C)c1cc(OC(C)=O)c(C2C=C(COC(C)=O)C3CC2C3(C)C)c(OC(C)=O)c1 (single isomer, unassigned) [VIIIa(-), 4-trans-[2-(5-(1,1-dimethylheptyl)-resorcyl)]-10-hydroxy-pin-2-ene, triacetate]				50 mg/kg	18	30 mg/kg
CCCCCC(C)C(C)c1cc(OC(C)=O)c(C2C=C(COC(C)=O)C3CC2C3(C)C)c(OC(C)=O)c1 (single isomer, unassigned) [VIIIb(+), 4-Trans-[2-(5-(1,2-dimethylheptyl-resorcyl)]-10-hydroxy-pin-2-ene, triacetate]	50	10	50			
CCCCCC(C)C(C)c1cc(OC(C)=O)c(C2C=C(COC(C)=O)C3CC2C3(C)C)c(OC(C)=O)c1 (single isomer, unassigned) [VIIIb(-), 4-trans-[2-(5-(1,2-dimethylpheptyl)]-resorcyl)-10-hydroxy-pin-2-ene, triacetate]				50 mg/kg	10	30 mg/kg
CCCCCCC(C)(C)c1cc(OC(C)=O)c(C2C=C(COC(=O)C(C)(C)C)C3CC2C3(C)C)c(OC(C)=O)c1 (single isomer, unassigned) [VIIIc(+)]	> 50	25	> 50			
CCCCCCC(C)(C)c1cc(OC(C)=O)c(C2C=C(COC(=O)C(C)(C)C)C3CC2C3(C)C)c(OC(C)=O)c1 (single isomer, unassigned) [VIIIc(-)]				> 50 mg/kg	25	> 50 mg/kg
CCCCCC(C)C(C)c1cc(OC(C)=O)c(C2C=C(COC(=O)C(C)(C)C)C3CC2C3(C)C)c(OC(C)=O)c1 (single isomer, unassigned) [VIIId(+), 4-trans-[2-(5-(1,2-dimethylheptyl)-resorcyl diacetate)]-10-hydroxy-pin-2-ene-10-pivalate]	> 50	25	> 50			
CCCCCC(C)C(C)c1cc(OC(C)=O)c(C2C=C(COC(=O)C(C)(C)C)C3CC2C3(C)C)c(OC(C)=O)c1 (single isomer, unassigned) [VIIId(-), 4-trans-[2-(5-(1,2-dimethylheptyl)-resorcyl diacetate)]-10-hydroxy-pin-2-ene-10-pivalate]				> 50 mg/kg	25	> 50 mg/kg
CCCCCCC(C)(C)c1cc(O)c(C2C=C(CO)C3CC2C3(C)C)c(O)c1 (single isomer, unassigned) [VIIa(+), 4-Trans-[2-(5-(1,1-dimethylheptyl)-resorcyl)]-10-hydroxy-pin-2-ene]	15	5				30 mg/kg
CCCCCCC(C)(C)c1cc(O)c(C2C=C(CO)C3CC2C3(C)C)c(O)c1 (single isomer, unassigned) [VIIa(-), 4-trans-[2-(5-(1,1-dimethylheptyl)-resorcyl)]-10-hydroxy-pin-2-ene]				25 mg/kg	7	6 mg/kg
CCCCCC(C)C(C)c1cc(O)c(C2C=C(CO)C3CC2C3(C)C)c(O)c1 (single isomer, unassigned) [VIIb(+), 4-Trans[2-(5-(1,2-dimethylheptyl)-resorcyl)]-10-hydroxy-pin-2-ene]	15	5				30 mg/kg
CCCCCC(C)C(C)c1cc(O)c(C2C=C(CO)C3CC2C3(C)C)c(O)c1 (single isomer, unassigned) [VIIb(-), 4-Trans-[2-(5-(1,2-dimethyheptyl)-resorcyl)]-10-hydroxy-pin-2-ene]				25 mg/kg	7	6 mg/kg
CCCCCCC(C)(C)c1cc(O)c(C2C=C(COC(C)=O)C3CC2C3(C)C)c(O)c1 (single isomer, unassigned) [VIa(+)]	35	10				30 mg/kg
CCCCCCC(C)(C)c1cc(O)c(C2C=C(COC(C)=O)C3CC2C3(C)C)c(O)c1 (single isomer, unassigned) [VIa(-)]				25 mg/kg	10	10 mg/kg
CCCCCC(C)C(C)c1cc(O)c(C2C=C(COC(C)=O)C3CC2C3(C)C)c(O)c1 (single isomer, unassigned) [VIb(+)]	35	10				30 mg/kg
CCCCCC(C)C(C)c1cc(O)c(C2C=C(COC(C)=O)C3CC2C3(C)C)c(O)c1 (single isomer, unassigned) [VIb(-)]				25 mg/kg	10	10 mg/kg
CCCCCCC(C)(C)c1cc(O)c(C2C=C(COC(=O)C(C)(C)C)C3CC2C3(C)C)c(O)c1 (single isomer, unassigned) [VIc(+)]	30	10				
CCCCCCC(C)(C)c1cc(O)c(C2C=C(COC(=O)C(C)(C)C)C3CC2C3(C)C)c(O)c1 (single isomer, unassigned) [VIc(-)]				30 mg/kg	< 10	10 mg/kg
CCCCCC(C)C(C)c1cc(O)c(C2C=C(COC(=O)C(C)(C)C)C3CC2C3(C)C)c(O)c1 (single isomer, unassigned) [VId(+), 4-trans-[2-(5-(1,2-dimethylheptyl)-resorcyl)]-10-hydroxy-pin-2-ene, 10 pivalate]	30	10				
CCCCCC(C)C(C)c1cc(O)c(C2C=C(COC(=O)C(C)(C)C)C3CC2C3(C)C)c(O)c1 (single isomer, unassigned) [VId(-), 4-trans-[2-(5-(1,2-dimethylheptyl)-resorcyl)]-10-hydroxy-pin-2-ene, 10 pivalate]				30 mg/kg	< 10	10 mg/kg
CCCCCC(C)C(C)c1cc(O)c(C2CC(C)C3CC2C3(C)C)c(O)c1 (single isomer, unassigned) [Xb(-), 4-Trans-[-(5-(1,2-dimethylheptyl)-resorcyl)]-pinane]	~50	6	~50			
CCCCCCC(C)(C)c1cc(O)c(C2CC(C)C3CC2C3(C)C)c(O)c1 (stereo not drawn) [Xa(+), 4-Trans-[2-(5-(1,1-dimethylheptyl)-resorcyl)]-pinane]				~ 50 mg/kg	15	~ 50 mg/kg
CCCCCCC(C)(C)c1cc(O)c(C2CC(C)C3CC2C3(C)C)c(O)c1 (stereo not drawn) [Xa(-), 4-trans-[2-(5-(1,1-dimethylheptyl)-resorcyl)]-pinane]				~ 50 mg/kg	9	~ 50 mg/kg
CCCCCC(C)C(C)c1cc(O)c(C2CC(C)C3CC2C3(C)C)c(O)c1 (stereo not drawn) [Xb(+), 4-Trans-[-(5-(1,2-dimethylheptyl)-resorcyl)]-pinane]				~ 50 mg/kg	6	~ 50 mg/kg
